Format in all cases: cell-based
Assay [1] concerns pS6K1 T389 and pAkt S473 in PC3 cells. Put plainly: Western blot based pS6K1 and pAKT assay at 24 and 48 hour timepoints. On the procedure: Example 57: Western Blot Based pS6K1 and pAKT Assay at 24 and 48 Hour Timepoints
Assay Protocol: • 1. Seed six well plate with 500,000 PC3 cells per well and incubate for 20˜24 hour. • 2. Add compounds into the cell plate. Incubate for 24 to 48 hours. • 4. Plate is placed on ice and the media is removed via aspiration. The wells are washed with 1 mL of 1x PBS and then fully aspirated. • 5. 110 μL of 1% Triton Lysis Buffer is added and each well is scraped vigorously. • 6. Cell homogenates are transferred to 1.5 mL eppendorf tubes on ice and spun down at 4° C. for 10 minutes at 10,000 rpm. • 7. Protein concentration of resulting cell lysates were quantified utilizing a Bradford assay and the samples run analyzed via Western blot on 4-12% Bis/Tris gels with 1×MES buffer. • 8. The gels were transferred onto membranes at 50V for 100 minutes, blocked with Odyssey Blocking buffer for 30 minutes then incubated overnight with primary antibody (pS6K1 T389 Rabbit or pAkt S473 Rabbit) overnight at 4° C. on a rotator. • 9. The membranes were washed 3× with TBS-T with a 5 minute incubation between each wash then incubated with secondary antibody (LiCor IRDye 800 Donkey Anti Rabbit) for at least 30 minutes. • 10. The membranes were washed 3× with TBS-T with a 5 minute incubation between each wash. • 11. The gels were then incubated for 5 minutes with PBS at room temperature then imaged using a Li-Cor.
Compounds that are not selective by comparing pS6K1 and pAKT IC50 by kinase assays are indicated by “NO” in the “mTORC1 selective @ 90 min” column of Table 4. […] Compounds that are not selective at the 24 hrs mark are indicated by “NO” in the “mTORC1 selective @ 24 hrs” column of Table 4. “N/A” stands for “not assayed” and “N/C” stands for “not calculated”.

In assay [2] the test system is p-p70 S6 Kinase (Thr389) in MCF-7 cells. Put plainly: AlphaLISA Ultra pS6K1 assay. The conditions noted are these: Homo sapiens, 1.5 h; MCF7 cells, 90 min. The method in brief:
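MCF-7 cells seeded 20–24 h, given fresh medium 2 h, then treated with compounds 90 min (0.5% DMSO final). Cells lysed, lysates frozen at −80 °C, then Thr389-phosphorylated S6K1 detected by AlphaLISA Ultra with acceptor beads 2 h, then donor beads 2 h.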

For a further assay, the system named is mTORC1 over mTORC2. Put plainly: mTORC1 over mTORC2 selectivity by comparing pS6K1 and pAKT IC50. Conditions: by comparing pS6K1 and pAKT IC50, 90 min. In outline:
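MCF-7 cells were treated with compounds (0.5% final DMSO) for 90 minutes in one protocol and 2 hours in the other, then lysed. Phospho-signal in lysates was read by bead-based donor/acceptor proximity assay. pS6K1 and pAKT IC50 values were compared to judge mTORC1 over mTORC2 selectivity, at 90 min and at 24 hrs.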

For assay [3], the system named is p-Akt 1/2/3 (Ser473) in MCF-7 cells. Put plainly: AlphaLISA Ultra pAKT assay. Conditions: Homo sapiens, 1.5 h; MCF7 cells, 90 min. In outline: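 MCF-7 cells (16,000˜20,000 per well in 36 μL medium) were seeded in Corning 3701 plates for 20˜24 hour, refreshed with new medium for 90 minutes, then given 12 μL of 4× compound (0.5% final DMSO). Cells were lysed with 2× lysis buffer, and lysate was analyzed by AlphaLISA Ultra pAKT using acceptor and donor beads, read on an EnSpire reader.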

pIC50: −log10 of the molar value.

With `COCCOCCO[C@H]1C[C@@H]2CC[C@@H](C)[C@@](O)(O2)C(=O)C(=O)N2CCCC[C@H]2C(=O)O[C@H]([C@H](C)C[C@@H]2CC[C@@H](O)[C@H](OC)C2)CC(=O)[C@H](C)/C=C(\C)[C@@H](OC)[C@@H](OC)C(=O)[C@H](C)C[C@H](C)/C=C/C=C/C=C/1C` [I-49, (23E,25E,27E,28E,34R,35S,36R,37R,39S,41S,43S,44S,45R,46R,55R)-55-hydroxy-44-[(1R)-2-[(1S,3R,4R)-4-hydroxy-3-methoxy-cyclohexyl]-1-methyl-ethyl]-45,46-dimethoxy-43-[2-(2-methoxyethoxy)ethoxy]-34,35,36,37,47,48-hexamethyl-64,65-dioxa-56-azatricyclohexatriaconta-23,25,27(47),28(48)-tetraene-49,50,51,52,53-pentone], in assay [1], the “mTORC1 selective @ 24 hrs” value is recorded as “Yes”. Further, in assay [2], the pIC50 was 8.00 to 9.00.

Take `CO[C@@H]1/C(C)=C/[C@@H](C)C(=O)C[C@@H]([C@H](C)C[C@@H]2CC[C@@H](OCCO)[C@H](OC)C2)OC(=O)[C@@H]2CCCCN2C(=O)C(=O)[C@]2(O)O[C@@H](CC[C@H]2C)C[C@H](OCCOCCOC2COC2)/C(C)=C/C=C/C=C/[C@@H](C)C[C@@H](C)C(=O)[C@@H]1OC` [I-62, (1R,9S,12S,15R,16E,18R,19R,21R,23S,24E,26E,28E,30S,32S,35R)-1-hydroxy-12-[(1R)-2-[(1S,3R,4R)-4-(2-hydroxyethoxy)-3-methoxy-cyclohexyl]-1-methyl-ethyl]-18,19-dimethoxy-15,17,21,23,29,35-hexamethyl-30-[2-[2-(oxetan-3-yloxy)ethoxy]ethoxy]-11,36-dioxa-4-azatricyclo[30.3.1.0^4,9]hexatriaconta-16,24,26,28-tetraene-2,3,10,14,20-pentone]: the “mTORC1 selective @ 24 hrs” value in assay [1] is recorded as “No”. In addition, the pIC50 in assay [2] was 6.00 to 7.00.

On to `COCCO[C@@H]1CC[C@@H](C[C@@H](C)[C@@H]2CC(=O)[C@H](C)/C=C(\C)[C@@H](O)[C@@H](OC)C(=O)[C@H](C)C[C@H](C)/C=C/C=C/C=C(\C)[C@@H](OC[C@H]3COCCO3)C[C@@H]3CC[C@@H](C)[C@@](O)(O3)C(=O)C(=O)N3CCCC[C@H]3C(=O)O2)C[C@H]1OC` [I-64, (1R,9S,12S,15R,16E,18R,19R,21R,23S,24E,26E,28E,30S,32S,35R)-30-[[(2R)-1,4-dioxan-2-yl]methoxy]-1,18-dihydroxy-19-methoxy-12-[(1R)-2-[(1S,3R,4R)-3-methoxy-4-(2-methoxyethoxy)cyclohexyl]-1-methyl-ethyl]-15,17,21,23,29,35-hexamethyl-11,36-dioxa-4-azatricyclo[30.3.1.0^4,9]hexatriaconta-16,24,26,28-tetraene-2,3,10,14,20-pentone], for which the “mTORC1 selective @ 24 hrs” value in assay [1] is recorded as “Yes”. Besides, the pIC50 in assay [2] is 8.00 to 9.00.

On to `COCCO[C@@H]1CC[C@@H](C[C@@H](C)[C@@H]2CC(=O)[C@H](C)/C=C(\C)[C@@H](O)[C@@H](OC)C(=O)[C@H](C)C[C@H](C)/C=C/C=C/C=C(\C)[C@@H](OC[C@@H]3COCCO3)C[C@@H]3CC[C@@H](C)[C@@](O)(O3)C(=O)C(=O)N3CCCC[C@H]3C(=O)O2)C[C@H]1OC` [I-66, (1R,9S,12S,15R,16E,18R,19R,21R,23S,24E,26E,28E,30S,32S,35R)-30-[[(2S)-1,4-dioxan-2-yl]methoxy]-1,18-dihydroxy-19-methoxy-12-[(1R)-2-[(1S,3R,4R)-3-methoxy-4-(2-methoxyethoxy)cyclohexyl]-1-methyl-ethyl]-15,17,21,23,29,35-hexamethyl-11,36-dioxa-4-azatricyclo[30.3.1.0^4,9]hexatriaconta-16,24,26,28-tetraene-2,3,10,14,20-pentone], for which, in assay [1], the “mTORC1 selective @ 24 hrs” value is recorded as “Yes”. Also, the pIC50 in assay [2] is 8.00 to 9.00.

For the molecule `COCCO[C@@H]1CC[C@@H](C[C@@H](C)[C@@H]2CC(=O)[C@H](C)/C=C(\C)[C@@H](OC)[C@@H](OC)C(=O)[C@H](C)C[C@H](C)/C=C/C=C/C=C(\C)[C@@H](OCCOCCOC3COC3)C[C@@H]3CC[C@@H](C)[C@@](O)(O3)C(=O)C(=O)N3CCCC[C@H]3C(=O)O2)C[C@H]1OC` [I-69, (1R,9S,12S,15R,16E,18R,19R,21R,23S,24E,26E,28E,30S,32S,35R)-1-hydroxy-18,19-dimethoxy-12-[(1R)-2-[(1S,3R,4R)-3-methoxy-4-(2-methoxyethoxy)cyclohexyl]-1-methyl-ethyl]-15,17,21,23,29,35-hexamethyl-30-[2-[2-(oxetan-3-yloxy)ethoxy]ethoxy]-11,36-dioxa-4-azatricyclo[30.3.1.0^4,9]hexatriaconta-16,24,26,28-tetraene-2,3,10,14,20-pentone], the “mTORC1 selective @ 24 hrs” value in assay [1] is “No”. Besides, in assay [2], the negative-log IC50 (pIC50) is at most 6.00.

Take `COCCO[C@@H]1CC[C@@H](C[C@@H](C)[C@@H]2CC(=O)[C@H](C)/C=C(\C)[C@@H](OC)[C@@H](OC)C(=O)[C@H](C)C[C@H](C)/C=C/C=C/C=C(\C)[C@@H](OCCOC3COC3)C[C@@H]3CC[C@@H](C)[C@@](O)(O3)C(=O)C(=O)N3CCCC[C@H]3C(=O)O2)C[C@H]1OC` [I-83, (1R,9S,12S,15R,16E,18R,19R,21R,23S,24E,26E,28E,30S,32S,35R)-1-hydroxy-18,19-dimethoxy-12-[(1R)-2-[(1S,3R,4R)-3-methoxy-4-(2-methoxyethoxy)cyclohexyl]-1-methyl-ethyl]-15,17,21,23,29,35-hexamethyl-30-[2-(oxetan-3-yloxy)ethoxy]-11,36-dioxa-4-azatricyclo[30.3.1.0^4,9]hexatriaconta-16,24,26,28-tetraene-2,3,10,14,20-pentone]: the “mTORC1 selective @ 90 min” value in the assay on mTORC1 over mTORC2 is “No”. Further, in assay [1], the “mTORC1 selective @ 24 hrs” value is recorded as “No”. Also, the negative logarithm of the IC50 (pIC50) in assay [2] and in assay [3] was at most 6.00 each time.

For the molecule `CO[C@@H]1C[C@H](C[C@@H](C)[C@@H]2CC(=O)[C@H](C)/C=C(\C)[C@@H](O)[C@@H](OC)C(=O)[C@H](C)C[C@H](C)/C=C/C=C/C=C(\C)[C@@H](OC[C@@H]3COCCO3)C[C@@H]3CC[C@@H](C)[C@@](O)(O3)C(=O)C(=O)N3CCCC[C@H]3C(=O)O2)CC[C@H]1OCCO` [I-85, (1R,9S,12S,15R,16E,18R,19R,21R,23S,24E,26E,28E,30S,32S,35R)-30-[[(2S)-1,4-dioxan-2-yl]methoxy]-1,18-dihydroxy-12-[(1R)-2-[(1S,3R,4R)-4-(2-hydroxyethoxy)-3-methoxy-cyclohexyl]-1-methyl-ethyl]-19-methoxy-15,17,21,23,29,35-hexamethyl-11,36-dioxa-4-azatricyclo[30.3.1.04,9]hexatriaconta-16,24,26,28-tetraene-2,3,10,14,20-pentone], the “mTORC1 selective @ 90 min” value in the assay with mTORC1 over mTORC2 is “Yes”. Moreover, the “mTORC1 selective @ 24 hrs” value in assay [1] was “Yes”. Moreover, the pIC50 in assay [2] was 8.00 to 9.00; in assay [3], at most 6.00.

For the molecule `CO[C@@H]1/C(C)=C/[C@@H](C)C(=O)C[C@@H]([C@H](C)C[C@@H]2CC[C@@H](O)[C@H](OC)C2)OC(=O)[C@@H]2CCCCN2C(=O)C(=O)[C@]2(O)O[C@@H](CC[C@H]2C)C[C@H](OCCOC2COC2)/C(C)=C/C=C/C=C/[C@@H](C)C[C@@H](C)C(=O)[C@@H]1OC` [I-97, (1R,9S,12S,15R,16E,18R,19R,21R,23S,24E,26E,28E,30S,32S,35R)-1-hydroxy-12-[(1R)-2-[(1S,3R,4R)-4-hydroxy-3-methoxy-cyclohexyl]-1-methyl-ethyl]-18,19-dimethoxy-15,17,21,23,29,35-hexamethyl-30-[2-(oxetan-3-yloxy)ethoxy]-11,36-dioxa-4-azatricyclo[30.3.1.0^4,9]hexatriaconta-16,24,26,28-tetraene-2,3,10,14,20-pentone], the “mTORC1 selective @ 90 min” value with mTORC1 over mTORC2 is on record as “No”. The “mTORC1 selective @ 24 hrs” value in assay [1] is “No”. Further, the negative-log IC50 (pIC50) in assay [2] and in assay [3] was at most 6.00 in each case.

For the origin of these results see US20220267352A1, “RAPAMYCIN ANALOGS AND USES THEREOF” (Anakuria Therapeutics, Inc., priority 2021, published 2022).
